Data: US20190167771A1, “CONTROL ANGIOGENESIS BY REGULATING PHOSPHORYLATION OF SERYL-tRNA SYNTHETASE (SerRS)” (The Scripps Research Institute, priority 2016, published 2019)

What was measured:
[1] = test system: ATM/ATR kinases; assay: Phosphorylation of exogenously expressed Flag-tagged SerRS in hypoxic HEK293 cells (IP/IB with anti-P-SQ); type: cell-based, human; conditions: hypoxia 12 hours
[2] = test system: VEGFA; assay: VEGFA expression by qRT-PCR in HEK293 cells transfected with SerRS constructs; type: cell-based, human; conditions: HEK293 cells transfected with construct
Description: In FIG. 2A, wild type SerRS (SerRS^WT), its mutants with double substitutions of serine 101 and 241 with alanine or aspartic acid residues (SerRS^S101A/S241A and SerRS^S101D/S241D), or empty vector were transfected into HEK293 cells. The expression levels of SerRS proteins was measured by immunoblot (bottom) and VEGFA expression was determined by qRT-PCR (means±SEM from three independent experiments; ***P<0.0001). […] At 3 day post fertilization (dpf), embryos were harvested and Vegfa expression levels were measured by qRT-PCR (means±SEM, n=125-211; *P<0.01, **P<0.001) (B). The development of intersegmental vessel (ISV) at 3 dpf was examined (C) and the statistics of ISV abnormal branching rescued by SerRS^WT or mutant SerRS mRNA injections was analyzed (D; χ^2-test,* P>0.05 vs SerRS^WT, **P>0.1 vs SerRS-MO, ***P<1×10^−28 vs control-MO). […] In FIG. 2G, the binding of endogenous SerRS on VEGFA promoter during hypoxia course was monitored by ChIP (means±SEM from three independent experiments; *P<0.05, **P<0.005 vs normal). […]
HEK293 cells were transfected with wild type (WT) SerRS or SerRS mutants. […] At 24 hours post-transfection, cells were harvested and VEGFA expression levels were measured by qRT-PCR and relative VEGFA transcription were plotted after being normalized to 1-actin (means±: SEM).

[3] = test system: SerRS binding site on human VEGFA promoter; assay: EMSA with 32P-labeled 27-bp DNA fragment of the VEGFA promoter; conditions: recombinant protein
[4] = test system: VEGFA promoter; assay: Chromatin immunoprecipitation (ChIP) on VEGFA promoter in HEK293 cells; type: cell-based, human; conditions: ChIP and qPCR
Description: In FIG. 2A, wild type SerRS (SerRS^WT), its mutants with double substitutions of serine 101 and 241 with alanine or aspartic acid residues (SerRS^S101A/S241A and SerRS^S101D/S241D), or empty vector were transfected into HEK293 cells. The expression levels of SerRS proteins was measured by immunoblot (bottom) and VEGFA expression was determined by qRT-PCR (means±SEM from three independent experiments; ***P<0.0001). […] At 3 day post fertilization (dpf), embryos were harvested and Vegfa expression levels were measured by qRT-PCR (means±SEM, n=125-211; *P<0.01, **P<0.001) (B). The development of intersegmental vessel (ISV) at 3 dpf was examined (C) and the statistics of ISV abnormal branching rescued by SerRS^WT or mutant SerRS mRNA injections was analyzed (D; χ^2-test,* P>0.05 vs SerRS^WT, **P>0.1 vs SerRS-MO, ***P<1×10^−28 vs control-MO). […] In FIG. 2G, the binding of endogenous SerRS on VEGFA promoter during hypoxia course was monitored by ChIP (means±SEM from three independent experiments; *P<0.05, **P<0.005 vs normal).
Cells were fixed with formaldehyde (1% final concentration) for 10 min at room temperature. […] After 3 washes, ChIPed DNA was analyzed on the StepOnePlus Real-Time PCR system using SYBR Select Master Mix (Applied Biosystems). […]

Substance: SerRS^S101A/S241A: phosphorylation-deficient human SerRS double mutant, serine 101 and 241 to alanine, SEQ ID NO: 4 (mouse version in matrigel assay)
- phosphorylation of exogenously expressed SerRS [1]: much weaker phosphorylation than wild type SerRS

Substance: SerRS^S101D/S241D: SerRS with double substitutions of S101 and S241 with aspartic acid, mimics the phosphorylated SerRS
- repression of VEGFA transcription [2]: can no longer repress VEGFA transcription
- direct binding to 27-bp DNA fragment from the VEGFA promoter [3]: attenuated
- binding on VEGFA promoter [4]: decreased binding on VEGFA promoter
